What was measured:
HepG2 cells = test: Cholesterol biosynthesis, 14C-acetate incorporation in HepG2 cells; format: cell-based; settings: Homo sapiens, 4 h incubation, 14C-acetate incorporation over final hour, read-out: Chol. Biosynthesis
Description: (§1) The human hepatoma HepG2 cell culture model was employed to compare the intrinsic activities of the synthetic analogues relative to the tocotrienols. HepG2 cells were incubated with the indicated compounds for 4 hours at 10 μM. Cholesterol synthesis was assayed by ^14 C-acetate incorporation over the final hour of incubation, and HMG-CoA reductase suppression (specific activity) was assayed in the microsomal fraction isolated from parallel cultures at the end of the 4 hour incubation. […] (Table I)

HMG-CoA reductase [1] = test: HMG-CoA reductase suppression (specific activity) in microsomal fraction of treated HepG2 cells; format: cell-based, human; settings: 10 μM, 4 h incubation
Description: as §1

[2] = system: normocholesterolemic chickens; test: Serum lipids (total, LDL and HDL cholesterol) in normocholesterolemic male chickens; format: in vivo, chicken; settings: orally dosed for 4 weeks at 4 mg/kg/day
Description: (§2) Hypocholesterolemic activity was evaluated for the synthetic analogues using γ-tocotrienol as a control in normocholesterolemic chickens. Newborn male chicks (6-10 for each group) were raised on a standard corn-soybean-based control diet for two weeks and then were switched to either control or experimental diets for four weeks. Drug treatment consisted of the addition of test compound to the corn-soybean-based. At the end of the feeding period, all the birds were fasted (about 36 hours) and refed (about 48 hours) to induce cholesterolgenic enzymes prior to sacrifice. The specific activity of HMG-CoA reductase, total serum cholesterol levels, HDL/LDL cholesterol pools, and triglyceride levels (data not shown) were examined (Table II).
(§3) Effects of Compound 3 on Lipid Parameters in Male Chickens
(§4) Orally dosed for 4-weeks at 4 mg/kg/day

HMG-CoA reductase [3] = test: HMG-CoA reductase specific activity in normocholesterolemic male chickens; format: in vivo, chicken; settings: orally dosed for 4 weeks at 4 mg/kg/day
Description: as §2, §3, §4

[4] = Oxidation potential by cyclic voltammetry
LDL [5] = test: In vitro copper-mediated LDL oxidation, conjugated diene lag time extension; settings: 10 μM incubated with rabbit plasma, isolated LDL, added Cu++; lag time ratio treated/control
LDL [6] = settings: in vitro and in vivo; cited from earlier work
[7] = background statement; cited from earlier work
LDL [8] = settings: oral vitamin E supplementation; cited from earlier work

Molecule | activity at 10 µM (HepG2 cells) | HMGR Suppression (HMG-CoA reductase [1]) | HDL-C [2] | LDL-C [2] | Oxd. Potential [4] | other results
CC(C)=CCC/C(C)=C/CC/C(C)=C/CCSCC1=CC(C)(C)N([O])C1(C)C [Compound 3, 2,5-Dihydro-2,2,5,5-Tetramethyl-3-[[(4,8,12-Trimethyl-3(E),7(E),11-Tridecatrienyl)thio]methyl]-1H-Pyrrole N-Oxide Radical] | 5% | 45% of Control | 85.8 % of Control | 52.8 % of Control | 0.65 Volts | Tot.-C ([2]; total serum cholesterol): 72.0 % of Control; HMGR (HMG-CoA reductase [3]): 56.0 % of Control; LDL Oxd. Inhib. mean lag ratio (LDL [5]): 0.97
CC(C)=CCC/C(C)=C/CC/C(C)=C/CCCOc1ccc2c(c1)C(C)=CC(C)(C)N2[O] [Compound 5, 1,2 -Dihydro-2,2,4-Trimethyl-6-[(5,9,13 -Trimethyl-4(E),8(E),12-tetradecatrienyl)oxy]Quinoline N-Oxide Radical] | 72% |  |  |  |  | 
CC(C)(Sc1cc(C(C)(C)C)c(O)c(C(C)(C)C)c1)Sc1cc(C(C)(C)C)c(O)c(C(C)(C)C)c1 [PROBUCOL, 4,4'-[(1-methylethylidene)bis(thio)]bis[2,6-bis(1,1-dimethylethyl)]] |  |  |  |  | 1.12 Volts | oxidative modification of LDL (LDL [6]): inhibits the oxidative modification of LDL both in vitro and in vivo; bioavailability [7]: suffers from bioavailability problems
Cc1c(C)c2c(c(C)c1O)CCC(C)(CCCC(C)CCCC(C)CCCC(C)C)O2 (stereo not drawn) [α-Tocopherol] |  |  |  |  | 0.81 Volts | 
CC(C)=CCC/C(C)=C/CC/C(C)=C/CCC1(C)CCc2cc(O)c(C)c(C)c2O1 (centres unmarked) [γ-Tocotrienol] | 75% | 65% of Control | 87.0 % of Control | 54.8 % of Control | 0.94 Volts | 
vitamin E |  |  |  |  |  | antioxidant effectiveness, variation between subjects (LDL [8]): varied considerably from subject to subject; oxidative resistance of LDL (LDL [8]): significantly enhanced
